In patent publication US9404087B2, “Insulin producing cells derived from pluripotent stem cells” (Kadimastem Ltd., priority 2010, dated 2016):

How the values were obtained:
Type in all cases: cell-based
Human insulin mRNA = Human insulin mRNA by RT-qPCR with TBP as reference; conditions: EDTA added during the re-aggregation step
Protocol: Aliquots of the Presort culture and of EpCAM-MACS-separated fractions (from step 7), as well as of re-aggregated clusters (step 8) were analyzed. The number of cells was counted, using the Nucleocounter. After centrifugation at 350×g for 5 minutes, cell pellets were dissolved in M-PER (Mammalian protein extraction reagent, Pierce), typically using 0.1 ml M-PER for 2 million cells, and content of human insulin C-peptide was measured with an ELISA kit (Mercodia, Upsalh, Sweden, ultrasensitive c-peptide kit (minimal detection 5 pM) or Mercodia c-peptide ELISA (minimal detection 90 pM). Samples in M-PER were diluted 3 fold, or more in the kit buffer, and 20 μl of the ⅓ dilution were assayed. Results were expressed per mg total protein (as measured by Bradford assay) and per million cells (counted in a NucleoCounter). Other cell pellets were suspended in 0.7 ml buffer RLT (RNAeasy, Qiagen) per million cells, for RNA extraction. Human insulin mRNA was quantitated by RT-qPCR (Taq-Man, Applied Biosystems, Step One) using the TATA binding protein (TBP) gene as reference. In the same way, proteins and RNA were extracted from entire plates after scraping the cells with a rubber policeman. […]

human insulin C-peptide = test: Content of human insulin C-peptide by ELISA in cell fractions; conditions: EDTA added during re-aggregation (Table 2, Expt 3)
Protocol: On day 20, the medium used in step III of Example 2 was modified to adjust the glucose concentration to 5.5 mM (referred to herein as DM7). For isolation of EpCAM^+ cells by magnetic cell sorting (MACS technology, Miltenyi Biotec), a 10 cm-diameter plate was washed with PBS^−/− (no Ca^++, no Mg^++). Cells were then dissociated by treatment with Accutase (Stempro, 2.5 ml/10 cm plate), for 10 minutes at 37° C., and pipetting up and down. The cells were collected in DM7 and an aliquot counted in a NucleoCounter (New Brunswick). Cells were centrifuged at 1,500 rpm (350×g) for 5 minutes and re-suspended in MACS buffer (PBS^−/− with 0.5% BSA, 2 mM EDTA), using 0.3 ml for 50 million cells. Magnetic beads conjugated to anti-EpCAM antibodies (Miltenyi Biotec—CD326 pluripotent stem cells microbeads) were added (0.1 ml beads for 50 million cells). After 30 minutes at 4° C., the cells were washed once in 50 ml of MACS buffer, centrifuged, and finally re-suspended in 0.5 ml MACS buffer (for a maximum of 10^8 cells). […]
Aliquots of the Presort culture and of EpCAM-MACS-separated fractions (from step 7), as well as of re-aggregated clusters (step 8) were analyzed. The number of cells was counted, using the Nucleocounter. […] Human insulin mRNA was quantitated by RT-qPCR (Taq-Man, Applied Biosystems, Step One) using the TATA binding protein (TBP) gene as reference. […]

human ES cells [1] = test: Immunofluorescence for Pdx1 positive cells during differentiation
Protocol: On day 6, cells were washed with DMEM/F12, 2 mM glutamine, 1×PS, and medium changed to differentiation medium B1 (DMEM/F12, 2 mM glutamax (Invitrogen), 2 mg/ml BSA, 1% B27 supplement (In Vitrogen) 50 ng/ml human recombinant FGF10 (Preprotech), and 10 μM Forskolin (F-6886 from coleus forskohlii (SIGMA)). The cells were left two days in the same medium.
On day 8, the medium was changed to differentiation medium B2 i.e. medium B1 with addition of 2 μM fresh ATRA (All trans retinoic acid) for five days. Medium was changed every two days.
(§1) On day 13, medium was changed to DMEM/F12, Glutamine 2 mM, PS, 1×ITS supplement (Invitrogen), 2 mg/ml BSA, 5 μg/ml bovine fibronectin (Biological Industries Bet Ha'emek,), Nicotinamide 10 mM (SIGMA) and exendin-4, 5-50 ng/ml. Medium was changed every two days. Cells positive for C-peptide staining start to appear around day 19 of differentiation, but strong immunostaining for C-peptide appears at day 23 and positive islet like structures continue to form till day 50 and persist for at least 70 days. When the cells have differentiated more than 15-20 days, they can be further trypsinized and replated. On the second plating, islet-like structures appear 20-30 days after replating.
Performed as in Example 1. Goat polyclonal anti-human Pdx1/IPF1 (R&D) antibody at 1:100 for 2 hrs, (blocking at 5% BSA in PBS with Triton 0.1%) was used. […]

human ES cells [2] = test: Immunostaining for C-peptide and glucagon in islet-like structures
Protocol: as §1
Cultures obtained as in Examples 1 and 2 were further cultured in ITS medium (as detailed in step III of Example 2) and were stained using polyclonal rabbit antibody to C-peptide (Acris) or monoclonal antibody (MAB 1975, Abcam) at dilution 1:200 overnight. To detect glucagon-produing cells, the cultures were also stained with goat polyclonal antibody against Glucagon (Santa Cruz N-17) at the concentration of 1:200 over night. The glucose transporter Glut2 was detected with mouse monoclonal Anti Glut-2 antibodies (R&D systems) used at the concentration of 1:200. […]

O=C(O)CN(CCN(CC(=O)O)CC(=O)O)CC(=O)O [EDTA, reference compound]
effect on enrichment of insulin mRNA (Human insulin mRNA): increased
effect on C-peptide content of re-aggregated cells (human insulin C-peptide): further increase

CC1=C(/C=C/C(C)=C/C=C/C(C)=C/C(=O)O)C(C)(C)CCC1 [retinoic acid, All trans retinoic acid]
cultured cells expressing Pdx1 (human ES cells [1]; day 14, two days after end of retinoic acid treatment (2 μM ATRA with FGF10 and forskolin)): about 50%

exendin-4: maturation factor added to ITS medium at 5-50 ng/ml
effect on the percentage of Pdx1 positive cells (human ES cells [1]; 5-50 ng/ml, with nicotinamide, cell counting (data not shown)): positive effect
total amount of cells positive for C-peptide versus control without exendin-4 (human ES cells [2]; 5 ng/ml, after 60 days of differentiation (FIGS. 9A-B)): sufficient to increase
number of C-peptide/glucagon positive areas, 50 ng/ml relative to 5 ng/ml (human ES cells [2]; day 60 (not shown)): 3 time more
